pIC50: −log10 of the molar value. Calls of active or inactive are those of the source. The rule behind the calls is not given here.
Key:
HMC3 [1] = assay: Inhibition of ROS production in LPS/ATP-induced human HMC3 cells at 12.5 uM incubated for 24 hrs by MitoSOX Red FM staining based analysis; type: functional, cell-based
Mus musculus [2] = assay: Neuroprotective activity against scopolamine-induced cognitive deficit Swiss albino mouse model assessed as increase in c-FOS mRNA level at 10 mg/kg, ip measured after 14 days by RT-PCR analysis; type: functional, organism-based; settings: time 14.0 day
[3] = Acute toxicity in Swiss albino mouse assessed as signs of tremor at 2000 mg/kg, po measured 14 days post-administration; type: organism-based; settings: in vivo, 336 h, time 14 day
HMC3 [4] = assay: Antiinflammatory activity against LPS/ATP-induced human HMC3 cells assessed as reduction in caspase-1 level at 12.5 uM by Western blot analysis; type: functional, cell-based
[5] = Metal chelating activity assessed as compound-Fe3+ complex formation at 600 uM incubated for 24 hrs by UV spectrophotometry
HMC3 [6] = assay: Inhibition of LPS/ATP-induced cytotoxicity against human HMC3 cells at 12.5 uM incubated for 24 hrs by MTT assay; type: functional, cell-based
HMC3 [7] = assay: Induction of mitochondrial membrane potential stability in LPS/ATP-induced human HMC3 cells at 12.5 uM incubated for 24 hrs by Rhodamine 123/JC-1 staining based analysis; type: functional, cell-based
HMC3 [8] = assay: Antiinflammatory activity against LPS/ATP-induced human HMC3 cells assessed as reduction in IL-1beta level at 12.5 uM by Western blot analysis; type: functional, cell-based
[9] = target: Cholinesterase (Equus caballus) (UniProt P81908); assay: Competitive inhibition of equine BChE using BTCI as substrate at 1 to 10 uM preincubated for 30 mins followed by substrate addition by Ellman's method; settings: dose 1-10 µM
Chain of Cholinesterase (Equus caballus) (P81908 whole entry): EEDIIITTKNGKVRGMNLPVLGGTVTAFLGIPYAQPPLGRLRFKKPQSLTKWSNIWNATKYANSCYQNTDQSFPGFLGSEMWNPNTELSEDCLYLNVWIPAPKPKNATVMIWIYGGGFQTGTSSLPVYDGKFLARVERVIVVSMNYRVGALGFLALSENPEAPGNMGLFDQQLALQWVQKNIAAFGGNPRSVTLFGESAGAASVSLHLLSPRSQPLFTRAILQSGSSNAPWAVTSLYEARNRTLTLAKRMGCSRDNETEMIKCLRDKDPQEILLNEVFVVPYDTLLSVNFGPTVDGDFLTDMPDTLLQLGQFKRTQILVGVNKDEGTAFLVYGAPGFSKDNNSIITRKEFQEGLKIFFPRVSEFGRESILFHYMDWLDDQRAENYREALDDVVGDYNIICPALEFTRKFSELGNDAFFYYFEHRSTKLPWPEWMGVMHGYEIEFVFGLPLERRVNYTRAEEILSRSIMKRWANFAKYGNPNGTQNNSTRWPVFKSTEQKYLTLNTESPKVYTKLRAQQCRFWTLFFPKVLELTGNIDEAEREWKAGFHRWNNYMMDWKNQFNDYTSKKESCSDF

[10] = target: Microtubule-associated protein tau (Homo sapiens) (UniProt P10636); assay: Inhibition of Tau (unknown origin) aggregation at 1.125 uM incubated for 3 days by ThT assay; settings: time 3.0 day
Chain of Microtubule-associated protein tau (Homo sapiens) (P10636 whole entry): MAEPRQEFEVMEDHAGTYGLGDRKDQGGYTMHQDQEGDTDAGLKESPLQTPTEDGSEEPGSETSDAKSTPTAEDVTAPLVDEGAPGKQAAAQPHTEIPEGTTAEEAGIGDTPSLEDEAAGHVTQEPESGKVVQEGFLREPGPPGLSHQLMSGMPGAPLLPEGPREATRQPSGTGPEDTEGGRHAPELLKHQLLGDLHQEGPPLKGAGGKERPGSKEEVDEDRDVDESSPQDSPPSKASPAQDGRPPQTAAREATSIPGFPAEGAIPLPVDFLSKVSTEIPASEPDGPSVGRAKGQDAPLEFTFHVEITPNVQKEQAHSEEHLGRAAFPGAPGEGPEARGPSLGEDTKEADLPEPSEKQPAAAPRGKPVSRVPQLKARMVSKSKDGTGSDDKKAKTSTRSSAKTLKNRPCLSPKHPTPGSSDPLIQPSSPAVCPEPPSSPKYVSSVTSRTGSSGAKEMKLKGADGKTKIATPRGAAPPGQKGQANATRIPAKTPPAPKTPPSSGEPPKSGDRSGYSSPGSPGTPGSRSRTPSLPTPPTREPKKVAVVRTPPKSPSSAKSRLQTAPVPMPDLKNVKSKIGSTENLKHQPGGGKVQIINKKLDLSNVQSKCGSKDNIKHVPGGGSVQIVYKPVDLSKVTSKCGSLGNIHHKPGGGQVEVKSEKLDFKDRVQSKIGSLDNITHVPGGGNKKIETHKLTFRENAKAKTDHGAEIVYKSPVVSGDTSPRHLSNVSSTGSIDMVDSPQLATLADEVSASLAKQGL

Mus musculus [11] = assay: Neuroprotective activity against scopolamine-induced cognitive deficit Swiss albino mouse model assessed as increase in BDNF mRNA level at 10 mg/kg, ip measured after 14 days by RT-PCR analysis; type: functional, organism-based; settings: time 14.0 day
[12] = Acute toxicity in Swiss albino mouse assessed as signs of over-weight gain at 2000 mg/kg, po measured 14 days post-administration; type: organism-based; settings: in vivo, 336 h, time 14 day
[13] = Acute toxicity in Swiss albino mouse assessed as signs of diarrhea at 2000 mg/kg, po measured 14 days post-administration; type: organism-based; settings: in vivo, 336 h, time 14 day
HMC3 [14] = assay: Inhibition of mitochondrial impairment in LPS/ATP-induced human HMC3 cells at 12.5 uM incubated for 24 hrs by Rhodamine 123/JC-1 staining based analysis; type: functional, cell-based
HMC3 [15] = assay: Antiinflammatory activity against LPS/ATP-induced human HMC3 cells assessed as reduction in NF-kappaB level at 12.5 uM by immunocytochemistry based analysis; type: functional, cell-based
Cholinesterase [16] = target: Cholinesterase (Equus caballus, UniProt P81908); assay: Inhibition of equine BChE using BTCI as substrate preincubated for 30 mins followed by substrate addition measured after 30 mins by Ellman's method
Chain of Cholinesterase (Equus caballus, UniProt P81908) (P81908 whole entry): as the sequence (P81908 whole entry) above

Mus musculus [17] = assay: Neuroprotective activity against scopolamine-induced cognitive deficit Swiss albino mouse model assessed as increase in PSD95 mRNA level at 10 mg/kg, ip measured after 14 days by RT-PCR analysis; type: functional, organism-based; settings: time 14.0 day
[18] = Antioxidant activity assessed as DPPH radical scavenging activity at 20 to 200 uM incubated for 30 mins by absorbance based analysis relative to control; type: functional; settings: dose 20-200 µM
Mus musculus [19] = assay: Neuroprotective activity against scopolamine-induced cognitive deficit Swiss albino mouse model assessed as increase in Nr4a2 mRNA level at 10 mg/kg, ip measured after 14 days by RT-PCR analysis; type: functional, organism-based; settings: time 14.0 day
[20] = Acute toxicity in Swiss albino mouse assessed as animal survival at 2000 mg/kg, po measured 14 days post-administration; type: organism-based; settings: in vivo, 336 h, time 14 day
HMC3 [21] = assay: Antiinflammatory activity against LPS/ATP-induced human HMC3 cells assessed as increase in Nrf2 level at 12.5 uM by Western blot analysis; type: functional, cell-based
Mus musculus [22] = assay: Neuroprotective activity against scopolamine-induced cognitive deficit Swiss albino mouse model assessed as increase in CREB1 mRNA level at 10 mg/kg, ip measured after 14 days by RT-PCR analysis; type: functional, organism-based; settings: time 14.0 day
Mus musculus [23] = assay: Neuroprotective activity against scopolamine-induced cognitive deficit Swiss albino mouse model assessed as increase in PKA mRNA level at 10 mg/kg, ip measured after 14 days by RT-PCR analysis; type: functional, organism-based; settings: time 14.0 day
HMC3 [24] = assay: Antiinflammatory activity against LPS/ATP-induced human HMC3 cells assessed as decrease in Iba-1 level at 12.5 uM by Western blot analysis; type: functional, cell-based
Mus musculus [25] = assay: Neuroprotective activity against scopolamine-induced cognitive deficit Swiss albino mouse model assessed as increase in GAP43 mRNA level at 10 mg/kg, ip measured after 14 days by RT-PCR analysis; type: functional, organism-based; settings: time 14.0 day
HMC3 [26] = assay: Antiinflammatory activity against LPS/ATP-induced human HMC3 cells assessed as reduction in IL-18 level at 12.5 uM by Western blot analysis; type: functional, cell-based
HMC3 [27] = assay: Antiinflammatory activity against LPS/ATP-induced human HMC3 cells assessed as reduction in NLRP3 level at 12.5 uM by immunocytochemistry based analysis; type: functional, cell-based
[28] = Permeability of compound in PBS at pH 7.4 at 500 uM by PAMPA; type: ADME; settings: read-out: permeability
[29] = Acute toxicity in Swiss albino mouse assessed as signs of abnormal behaviour at 2000 mg/kg, po measured 14 days post-administration; type: organism-based; settings: in vivo, 336 h, time 14 day
PC-12 = assay: Cytotoxicity against rat PC-12 cells upto 20 uM incubated for 24 hrs by MTT assay; type: toxicity, cell-based; settings: pc-12, 24 h
Acetylcholinesterase [30] = target: T1, Acetylcholinesterase (Homo sapiens, UniProt P22303); assay: Mixed inhibition of human AChE using ATCI as substrate at 0.1 to 5 uM preincubated for 30 mins followed by substrate addition by Ellman's method; settings: dose 0.1-5 µM
T1 sequence (P22303 whole entry): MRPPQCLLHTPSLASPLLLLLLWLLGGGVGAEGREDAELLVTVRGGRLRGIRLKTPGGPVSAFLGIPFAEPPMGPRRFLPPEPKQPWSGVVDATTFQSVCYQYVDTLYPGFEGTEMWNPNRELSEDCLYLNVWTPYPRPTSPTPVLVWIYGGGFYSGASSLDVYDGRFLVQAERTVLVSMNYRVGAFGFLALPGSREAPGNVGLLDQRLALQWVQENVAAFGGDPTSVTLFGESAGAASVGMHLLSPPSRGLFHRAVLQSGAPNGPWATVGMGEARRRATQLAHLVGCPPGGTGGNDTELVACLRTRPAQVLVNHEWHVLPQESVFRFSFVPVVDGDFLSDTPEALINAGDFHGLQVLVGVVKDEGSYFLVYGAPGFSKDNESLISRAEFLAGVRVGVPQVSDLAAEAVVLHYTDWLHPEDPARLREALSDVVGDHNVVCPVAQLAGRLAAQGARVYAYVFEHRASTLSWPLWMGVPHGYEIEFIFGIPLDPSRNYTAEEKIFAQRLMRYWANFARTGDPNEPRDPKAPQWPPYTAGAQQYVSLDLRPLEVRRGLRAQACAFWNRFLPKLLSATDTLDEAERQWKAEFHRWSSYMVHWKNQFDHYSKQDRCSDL

Acetylcholinesterase [31] = target: T1, Acetylcholinesterase; assay: Inhibition of human AChE using ATCI as substrate preincubated for 30 mins followed by substrate addition measured after 30 mins by Ellman's method
Mus musculus [32] = assay: Reversal of scopolamine-induced cognitive deficit Swiss albino mouse model assessed as increase in time in platform quadrant at 10 mg/kg, ip measured after 5 days by Morris water maze test; type: functional, organism-based; settings: time 5.0 day
HMC3 [33] = assay: Antiinflammatory activity against LPS/ATP-induced human HMC3 cells assessed as reduction in nuclear translocation of NF-kappaB at 12.5 uM by immunocytochemistry based analysis; type: functional, cell-based
HMC3 [34] = assay: Antiinflammatory activity against LPS/ATP-induced human HMC3 cells assessed as increase in vimentin level at 12.5 uM by immunocytochemistry based analysis; type: functional, cell-based
Cholinesterase [35] = target: Cholinesterase (Homo sapiens, UniProt P06276); assay: Inhibition of human BChE using BTCI as substrate preincubated for 30 mins followed by substrate addition measured after 30 mins by Ellman's method
Chain of Cholinesterase (Homo sapiens, UniProt P06276) (P06276 whole entry): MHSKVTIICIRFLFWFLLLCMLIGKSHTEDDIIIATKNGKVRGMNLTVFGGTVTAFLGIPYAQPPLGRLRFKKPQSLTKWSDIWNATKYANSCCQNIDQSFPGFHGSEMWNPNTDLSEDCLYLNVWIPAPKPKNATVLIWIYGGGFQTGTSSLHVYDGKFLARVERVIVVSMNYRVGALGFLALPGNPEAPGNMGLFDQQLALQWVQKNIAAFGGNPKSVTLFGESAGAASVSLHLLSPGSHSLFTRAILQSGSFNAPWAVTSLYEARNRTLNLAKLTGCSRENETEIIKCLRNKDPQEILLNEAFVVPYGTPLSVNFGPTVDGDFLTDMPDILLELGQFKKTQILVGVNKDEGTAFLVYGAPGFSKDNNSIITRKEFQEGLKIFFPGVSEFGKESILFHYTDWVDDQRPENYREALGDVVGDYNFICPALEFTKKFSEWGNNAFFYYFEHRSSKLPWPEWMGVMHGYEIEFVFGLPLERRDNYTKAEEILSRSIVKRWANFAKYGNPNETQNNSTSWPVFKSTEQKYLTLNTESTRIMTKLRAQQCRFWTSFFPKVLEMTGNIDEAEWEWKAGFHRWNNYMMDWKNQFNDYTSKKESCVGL

[36] = Antioxidant activity assessed as inhibition of DPPH radical scavenging activity incubated for 30 mins by absorbance based analysis; type: functional
HMC3 [37] = assay: Antiinflammatory activity against LPS/ATP-induced human HMC3 cells assessed as reduction in NLRP3 level at 12.5 uM by Western blot analysis; type: functional, cell-based
[38] = target: Amyloid-beta precursor protein (Homo sapiens) (UniProt P05067); assay: Inhibition of self-mediated Amyloid beta (1 to 42)(unknown origin) aggregation at 3.125 uM incubated for 3 days by ThT assay; settings: time 3.0 day
Chain of Amyloid-beta precursor protein (Homo sapiens) (P05067 whole entry): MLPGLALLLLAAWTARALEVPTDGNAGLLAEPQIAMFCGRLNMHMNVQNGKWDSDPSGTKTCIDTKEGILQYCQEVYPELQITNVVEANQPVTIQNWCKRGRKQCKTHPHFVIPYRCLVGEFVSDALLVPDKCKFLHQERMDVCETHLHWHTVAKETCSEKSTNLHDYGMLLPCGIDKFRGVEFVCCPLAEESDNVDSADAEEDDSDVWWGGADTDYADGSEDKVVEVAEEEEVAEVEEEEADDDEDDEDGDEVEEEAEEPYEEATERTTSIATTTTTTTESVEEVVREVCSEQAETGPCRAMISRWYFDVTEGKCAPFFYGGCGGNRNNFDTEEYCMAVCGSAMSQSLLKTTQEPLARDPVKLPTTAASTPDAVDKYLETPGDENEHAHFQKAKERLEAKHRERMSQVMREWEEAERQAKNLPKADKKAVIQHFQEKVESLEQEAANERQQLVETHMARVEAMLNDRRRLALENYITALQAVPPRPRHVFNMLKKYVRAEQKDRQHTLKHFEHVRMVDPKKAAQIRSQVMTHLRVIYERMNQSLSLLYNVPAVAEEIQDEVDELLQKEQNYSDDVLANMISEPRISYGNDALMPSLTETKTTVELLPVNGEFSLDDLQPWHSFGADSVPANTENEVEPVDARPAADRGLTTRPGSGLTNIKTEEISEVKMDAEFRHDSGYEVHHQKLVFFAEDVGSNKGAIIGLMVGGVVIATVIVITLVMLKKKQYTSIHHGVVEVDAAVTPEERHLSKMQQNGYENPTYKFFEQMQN

Mus musculus [39] = assay: Reversal of scopolamine-induced cognitive deficit Swiss albino mouse model assessed as decrease in escape latency at 10 mg/kg, ip measured for 5 days by Morris water maze test; type: functional, organism-based; settings: time 5.0 day
[40] = Acute toxicity in Swiss albino mouse assessed as signs of convulsion at 2000 mg/kg, po measured 14 days post-administration; type: organism-based; settings: in vivo, 336 h, time 14 day
Mus musculus [41] = assay: Reversal of scopolamine-induced cognitive deficit Swiss albino mouse model assessed as reduction in distance traveled to reach platform at 10 mg/kg, ip measured after 5 days by Morris water maze test; type: functional, organism-based; settings: time 5.0 day
Mus musculus [42] = assay: Neuroprotective activity against scopolamine-induced cognitive deficit Swiss albino mouse model assessed as increase in TRKB mRNA level at 10 mg/kg, ip measured after 14 days by RT-PCR analysis; type: functional, organism-based; settings: time 14.0 day
Mus musculus [43] = assay: Protection against scopolamine-associated dementia in Swiss albino mouse model assessed as increase in latency period at 10 mg/kg, ip measured after 14 days by Passive avoidance task method; type: functional, organism-based; settings: time 14.0 day
Mus musculus [44] = assay: Reversal of scopolamine-induced cognitive deficit Swiss albino mouse model assessed as increase in number of entries in target quadrant at 10 mg/kg, ip measured after 5 days by Morris water maze test; type: functional, organism-based; settings: time 5.0 day
[45] = Induction of NO release upto 100 uM incubated for 5 to 10 mins by Griess assay; type: functional; settings: time 5-10 min

Compound: COc1ccc2[nH]cc(CCNC(=O)Nc3cccc(/C(N)=N/O)c3)c2c1
- inhibition (HMC3 [1]): Active
- Activity (Mus musculus [2]): Active
- Activity [3]: Non-toxic
- Activity (HMC3 [4]): Active
- Activity [5]: inactive
- inhibition (HMC3 [6]): Active
- Activity (HMC3 [7]): Active
- Activity (HMC3 [8]): Active
- inhibition [9]: Active
- inhibition [10]: Active
- Activity (Mus musculus [11]): Active
- Activity [12]: Non-toxic
- Activity [13]: Non-toxic
- inhibition (HMC3 [14]): Active
- Activity (HMC3 [15]): Active
- pIC50 (Cholinesterase [16]): 5.92
- Activity (Mus musculus [17]): Active
- Activity [18]: 47.3%
- Activity (Mus musculus [19]): Active
- Activity [20]: Non-toxic
- Activity (HMC3 [21]): Active
- Activity (Mus musculus [22]): Active
- Activity (Mus musculus [23]): Active
- Activity (HMC3 [24]): Active
- Activity (Mus musculus [25]): Active
- Activity (HMC3 [26]): Active
- Activity (HMC3 [27]): Active
- Papp at 500 µM [28]: 12.3 ×10⁻⁶ cm/s
- Activity [29]: Non-toxic
- Activity (PC-12): Non-toxic
- inhibition (Acetylcholinesterase [30]): Active
- pIC50 (Acetylcholinesterase [31]): 6.04
- Activity (Mus musculus [32]): Active
- Activity (HMC3 [33]): Active
- Activity (HMC3 [34]): Active
- pIC50 (Cholinesterase [35]): 6.00
- pIC50 [36]: 4.82
- Activity (HMC3 [37]): Active
- inhibition [38]: Active
- Activity (Mus musculus [39]): Active
- Activity [40]: Non-toxic
- Activity (Mus musculus [41]): Active
- Activity (Mus musculus [42]): Active
- Activity (Mus musculus [43]): Active
- Activity (Mus musculus [44]): Active
- Activity [45]: inactive

Compound: N/C(=N\O)c1cccc(NC(=O)Nc2cccc(F)c2)c1
- inhibition (HMC3 [1]): Active
- Activity (Mus musculus [2]): Active
- Activity [3]: Non-toxic
- Activity (HMC3 [4]): Active
- Activity [5]: inactive
- inhibition (HMC3 [6]): Active
- Activity (HMC3 [7]): Active
- Activity (HMC3 [8]): Active
- inhibition [9]: Active
- inhibition [10]: Active
- Activity (Mus musculus [11]): Active
- Activity [12]: Non-toxic
- Activity [13]: Non-toxic
- inhibition (HMC3 [14]): Active
- Activity (HMC3 [15]): Active
- pIC50 (Cholinesterase [16]): 5.17
- Activity (Mus musculus [17]): Active
- Activity [18]: 46.1%
- Activity (Mus musculus [19]): Active
- Activity [20]: Non-toxic
- Activity (HMC3 [21]): Active
- Activity (Mus musculus [22]): Active
- Activity (Mus musculus [23]): Active
- Activity (HMC3 [24]): Active
- Activity (Mus musculus [25]): Active
- Activity (HMC3 [26]): Active
- Activity (HMC3 [27]): Active
- Papp at 500 µM [28]: 10.7 ×10⁻⁶ cm/s
- Activity [29]: Non-toxic
- Activity (PC-12): Non-toxic
- inhibition (Acetylcholinesterase [30]): Active
- pIC50 (Acetylcholinesterase [31]): 5.76
- Activity (Mus musculus [32]): Active
- Activity (HMC3 [33]): Active
- Activity (HMC3 [34]): Active
- pIC50 (Cholinesterase [35]): 5.28
- pIC50 [36]: 4.79
- Activity (HMC3 [37]): Active
- inhibition [38]: Active
- Activity (Mus musculus [39]): Active
- Activity [40]: Non-toxic
- Activity (Mus musculus [41]): Active
- Activity (Mus musculus [42]): Active
- Activity (Mus musculus [43]): Active
- Activity (Mus musculus [44]): Active
- Activity [45]: inactive
